Measured values published in PMC4140839 (PLoS ONE, 2014).
pIC50: −log10 of the molar value.

Molecular target: T1, RsASML (Ralstonia pseudosolanacearum, UniProt Q8XPM9)
T1 construct: gene RSp1609
Experiment: biochemical

T1 sequence (Q8XPM9 30-476 limits assumed): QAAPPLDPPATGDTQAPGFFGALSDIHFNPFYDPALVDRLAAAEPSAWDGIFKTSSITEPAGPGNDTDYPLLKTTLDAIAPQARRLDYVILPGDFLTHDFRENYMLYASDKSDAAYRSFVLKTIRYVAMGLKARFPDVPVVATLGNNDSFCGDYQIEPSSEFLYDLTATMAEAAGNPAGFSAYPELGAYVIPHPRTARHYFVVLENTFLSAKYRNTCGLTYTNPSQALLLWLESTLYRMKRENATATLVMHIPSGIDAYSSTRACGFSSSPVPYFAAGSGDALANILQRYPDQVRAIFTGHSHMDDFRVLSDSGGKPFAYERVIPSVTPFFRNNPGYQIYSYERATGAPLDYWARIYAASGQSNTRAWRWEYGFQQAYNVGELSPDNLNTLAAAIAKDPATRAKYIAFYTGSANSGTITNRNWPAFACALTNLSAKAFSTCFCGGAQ

SMILES | pIC50
Cc1cn([C@H]2C[C@H](O)[C@@H](COP(=O)(O)OP(=O)(O)OP(=O)(O)O)O2)c(=O)[nH]c1=O [TTP] | 3.70
O=P(O)(O)O [Phosphate] | 3.58
Nc1ncnc2c1ncn2[C@@H]1O[C@H](COP(=O)(O)OP(=O)(O)O)[C@@H](O)[C@H]1O [ADP] | 7.15
O=P(O)(O)OC[C@H](O)CO [L-α-glycerolphosphate] | 3.13
Nc1ccn([C@@H]2O[C@H](COP(=O)(O)OP(=O)(O)OP(=O)(O)O)[C@@H](O)[C@H]2O)c(=O)n1 [CTP] | 2.82
Nc1ncnc2c1ncn2[C@@H]1O[C@H](COP(=O)(O)O)[C@@H](O)[C@H]1O [AMP] | 7.12
NC(=O)C1=CN([C@@H]2O[C@H](COP(=O)(O)OP(=O)(O)OC[C@H]3O[C@@H](n4cnc5c(N)ncnc54)[C@H](OP(=O)(O)O)[C@@H]3O)[C@@H](O)[C@H]2O)C=CC1 [β-NADPH] | 4.28
Nc1nc2c(ncn2[C@@H]2O[C@H](COP(=O)(O)OP(=O)(O)OP(=O)(O)O)[C@@H](O)[C@H]2O)c(=O)[nH]1 [GTP] | 4.35
C[N+](C)(C)CCOP(=O)([O-])OC[C@H](O)CO [L-α-glycerolphosphocholine] | 4.19
Nc1ncnc2c1ncn2[C@@H]1O[C@H](CO)[C@@H](O)[C@H]1O [Adenosine] | 3.61
O=c1ccn([C@@H]2O[C@H](COP(=O)(O)OP(=O)(O)OP(=O)(O)O)[C@@H](O)[C@H]2O)c(=O)[nH]1 [UTP] | 2.87
Nc1ncnc2c1ncn2[C@@H]1O[C@H](COP(=O)(O)OP(=O)(O)OP(=O)(O)O)[C@@H](O)[C@H]1O [ATP] | 7.23
C[N+](C)(C)CCOP(=O)([O-])O [Phosphocholine] | 2.35
NC(=O)c1ccc[n+]([C@@H]2O[C@H](COP(=O)(O)OP(=O)(O)OC[C@H]3O[C@@H](n4cnc5c(N)ncnc54)[C@H](O)[C@@H]3O)[C@@H](O)[C@H]2O)c1 [NAD^+] | 7.18
Cc1cn([C@H]2C[C@H](O)[C@@H](COP(=O)(O)O)O2)c(=O)[nH]c1=O [TMP] | 4.45
